Counter-ions that a name gives are not always drawn.
Experiments:
[1] = system: MRSA strain USA300 Pvra-lux; type: cell-based, Staphylococcus aureus; conditions: compound 10 μM + oxacillin 2 μg/mL; for RG avg (relative growth): ratio of OD600 to oxacillin alone, four runs
Method: (§1) In the secondary screen each microtiter plate contained either cells in TSB alone (16 replicates), cells with oxacillin (2 μg/mL, 31 replicates), or cells with test compound and oxacillin (2 μg/mL, 49 wells). Each compound was assayed in four separate biological replicates.
(§2) All compounds classified in the primary screen as synergists that were vraSR-stimulating or -repressing (as shown in Table 8) were screened in a secondary assay for their effects on both growth and Pvra::lux induction by oxacillin. […] Each compound was tested four separate times at 10 μM in the presence of oxacillin (2 μg/mL) and luminescence was measured every 15 minutes. Relative growth (RG) and relative luminescence (RL) was calculated as the ratio between the OD600 or max LU value in the presence of compound and oxacillin over the average from pooled control values obtained from the same plate. […] Compounds that produced an average RG (ratio of the OD600 of the culture grown with test compound combined with oxacillin to that of oxacillin alone) of <0.8 were classified as oxacillin synergists or potentiators. The relative luminescence (RL) was the ratio of the LU produced in the presence of the test compound combined with oxacillin to that produced by oxacillin alone. Compounds were classified as “vraSR repressors” (mean RL of <0.8), “vraSR stimulators”, (mean RL>1.2), and “vraSR neutral” (mean RL between 0.80-1.2). […] In contrast, 34 compounds had no effect on growth in the presence of oxacillin (“un” in the OD600 category). Among the oxacillin potentiators, there were 2 vraSR stimulators, 3 vraSR neutral compounds and 10 vraSR repressors.

[2] = system: vraSR transcription (Pvra::lux); type: cell-based, Staphylococcus aureus; conditions: compound 10 μM + oxacillin 2 μg/mL; for RL avg (relative luminescence): ratio of LU to oxacillin alone, four runs
Method: as §1, §2

Structure (SMILES) | OD600 category [1] | RG avg (relative growth) [1] | Effect on vraSR transcription [2] | RL avg (relative luminescence) [2]
C(=C\c1ccccc1)/CN1CCN(C(c2ccccc2)c2ccccc2)CC1 [Cinnarizine] | un (no effect on growth in the presence of oxacillin (“un” in the OD600 category)) | 0.97 | neutral (“vraSR neutral” (mean RL between 0.80-1.2)) | 0.94
CCn1nc(C(=O)O)c(=O)c2cc3c(cc21)OCO3 [Cinoxacin] | un (no effect on growth in the presence of oxacillin (“un” in the OD600 category)) | 1.05 | neutral (“vraSR neutral” (mean RL between 0.80-1.2)) | 1.03
C[N+]12CCC(CC1)C(OC(=O)C(O)(c1ccccc1)c1ccccc1)C2 (stereo not drawn) [Clidinium bromide] | un (no effect on growth in the presence of oxacillin (“un” in the OD600 category)) | 0.97 | neutral (“vraSR neutral” (mean RL between 0.80-1.2)) | 0.95
COc1cccc2c1C(=O)c1c(O)c3c(c(O)c1C2=O)C[C@@](O)(C(C)=O)C[C@@H]3O[C@H]1C[C@H](N)[C@H](O)[C@H](C)O1 [Daunorubicin hydrochloride] | un (no effect on growth in the presence of oxacillin (“un” in the OD600 category)) | 0.98 | repress (“vraSR repressors” (mean RL of <0.8)) | 1.00
C[C@]12CC[C@H](O)C[C@H]1CC[C@@H]1[C@@H]2CC[C@]2(C)[C@@H](C3=CC(=O)OC3)CC[C@]12O [Digitoxigenin] | un (no effect on growth in the presence of oxacillin (“un” in the OD600 category)) | 1.01 | neutral (“vraSR neutral” (mean RL between 0.80-1.2)) | 0.97
O=c1[nH]c2ccccc2n1CCCN1CCC(n2c(=O)[nH]c3cc(Cl)ccc32)CC1 [Domperidone] | un (no effect on growth in the presence of oxacillin (“un” in the OD600 category)) | 0.91 | neutral (“vraSR neutral” (mean RL between 0.80-1.2)) | 0.85
COc1cccc2c1C(=O)c1c(O)c3c(c(O)c1C2=O)C[C@@](O)(C(=O)CO)C[C@@H]3O[C@H]1C[C@H](N)[C@H](O)[C@H](C)O1 [Doxorubicin hydrochloride] | un (no effect on growth in the presence of oxacillin (“un” in the OD600 category)) | 0.88 | repress (“vraSR repressors” (mean RL of <0.8)) | 0.83
O=C(CCCN1CC=C(n2c(=O)[nH]c3ccccc32)CC1)c1ccc(F)cc1 [Droperidol] | un (no effect on growth in the presence of oxacillin (“un” in the OD600 category)) | 1.02 | neutral (“vraSR neutral” (mean RL between 0.80-1.2)) | 0.91
C#C[C@]1(O)CC[C@H]2[C@@H]3CCc4cc(OC)ccc4[C@H]3CC[C@@]21C [Ethynylestradiol 3-methyl ether] | un (no effect on growth in the presence of oxacillin (“un” in the OD600 category)) | 0.95 | repress (“vraSR repressors” (mean RL of <0.8)) | 0.97
